In US6727279B2, “Arylsulphonamides and analogues” (Bayer Aktiengesellschaft, priority 1998, dated 2004):

Molecular target: T1, rat CB1 receptor (Rattus norvegicus, UniProt P20272)
T1 construct: contains an open reading frame of 1419 base pairs which corresponds to a protein of 473 amino acids; expressed in transfected cells; host or cells: CHOluc9 cells (CHO luciferase reporter line), stably transfected with pRc/CMV-based plasmid CMV-RH
Test: CB1 luciferase reporter gene test
Assay type: cell-based
Conditions: CHOluc9 cells stably transfected with rat CB1, forskolin-stimulated luciferase; read-out: IC50 (nmol/l), activity in the rat CB1 receptor luciferase receptor gene test
Description: CB1—Luciferase Reporter Gene Test
1. Cloning of the Rat Cannabinoid Receptor CB1
Total RNA from rat brain (the tissue was taken from freshly killed animals and shock-frozen in liquid nitrogen) was isolated by acidic guanidinium thiocyanate/phenol/chloroform extraction (J. Biol. Chem. 1979, 18, 5294) and converted into cDNA by means of reverse transcriptase and random primers (in each case from Invitrogen). […] This PCR product was subcloned into the TA cloning vector (Invitrogen) and the nucleotide sequence of the insert was determined by the dideoxynucleotide chain termination reaction using T7DNA polymerase (Sequenase, USA/Amersham). The insert has a length of 1477 base pairs and contains an open reading frame of 1419 base pairs which corresponds to a protein of 473 amino acids. The number of base pairs, the position of the open reading frame and the number of amino acids agree with the published sequence. […]

T1 sequence (P20272 whole entry): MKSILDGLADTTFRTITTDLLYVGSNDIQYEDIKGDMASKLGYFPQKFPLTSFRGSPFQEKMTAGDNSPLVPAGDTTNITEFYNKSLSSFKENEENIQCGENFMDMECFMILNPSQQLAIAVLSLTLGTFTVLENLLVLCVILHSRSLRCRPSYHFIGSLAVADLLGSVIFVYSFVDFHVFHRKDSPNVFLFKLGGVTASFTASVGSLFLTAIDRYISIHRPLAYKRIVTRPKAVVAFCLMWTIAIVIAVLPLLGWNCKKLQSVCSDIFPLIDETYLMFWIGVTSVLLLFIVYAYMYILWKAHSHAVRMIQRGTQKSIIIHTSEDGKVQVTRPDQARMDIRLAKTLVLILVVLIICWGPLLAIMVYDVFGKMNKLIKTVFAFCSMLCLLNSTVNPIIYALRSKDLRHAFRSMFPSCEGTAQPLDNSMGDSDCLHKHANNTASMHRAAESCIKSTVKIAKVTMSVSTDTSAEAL

O=S(=O)(CCCC(F)(F)F)Oc1cccc(Oc2cccc3cc(CO)oc23)c1 [Example 1, 2-Hydroxymethyl-7-[3-(4,4,4-trifluorobutyl-1-sulphonyloxy)phenyl-1-oxy]-benzofuran]
IC50: 0.55 nmol/L
